Laboratory results reported in patent US8952024B2, “Herbicidal pyrimidone derivatives” (E I du Pont de Nemours and Company, priority 2009, dated 2015).

Tests used:
Experiment in all cases: Test B pre-/postemergence plant response
Type in all cases: in vivo
[1] = tested on: wild oat (Avena fatua)
Outline: (§1)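 Seeds were sown in loam soil/sand blend and treated preemergence with compound in non-phytotoxic solvent mixture containing surfactant; postemergence sprays, same formulation, went onto plants 2 to 18 cm (1- to 4-leaf stage) in peat-based planting medium. Greenhouse 13 to 15 days, then visual rating versus untreated controls, 0 (no effect) to 100 (complete control).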

[2] = tested on: giant foxtail (Setaria faberii)
Outline: as §1

[3] = tested on: large crabgrass (Digitaria sanguinalis)
Outline: as §1

[4] = tested on: velvetleaf (Abutilon theophrasti); details: for Plant response rating, Velvetleaf: Postemergence, scale 0 to 100 (0 no effect, 100 complete control)
Outline: as §1

[5] = tested on: johnsongrass (Sorghum halepense)
Outline: as §1

[6] = tested on: cocklebur (Xanthium strumarium)
Outline: as §1

[7] = tested on: soybean (Glycine max); details: for Plant response rating, Soybean: Postemergence, scale 0 to 100 (0 no effect, 100 complete control)
Outline: as §1

[8] = tested on: kochia (Kochia scoparia)
Outline: as §1

[9] = tested on: goosegrass (Eleusine indica)
Outline: as §1

[10] = tested on: yellow nutsedge (Cyperus esculentus)
Outline: as §1

[11] = tested on: Surinam grass (Brachiaria decumbens); details: for Plant response rating, Surinam Grass: Postemergence, scale 0 to 100 (0 no effect, 100 complete control)
Outline: as §1

[12] = tested on: downy bromegrass (Bromus tectorum)
Outline: as §1

[13] = tested on: morningglory (Ipomoea coccinea)
Outline: as §1

[14] = tested on: woolly cupgrass (Eriochloa villosa)
Outline: as §1

[15] = tested on: corn (Zea mays)
Outline: as §1

[16] = tested on: blackgrass (Alopecurus myosuroides)
Outline: as §1

[17] = tested on: green foxtail (Setaria viridis)
Outline: as §1

[18] = 31 g ai/ha, postemergence, scale 0 to 100, 0 is no effect, 100 is complete control
[19] = 62 g ai/ha, postemergence, 0 is no effect, 100 is complete control, 13 to 15 days
[20] = Postemergence, 125 g ai/ha, scale 0 to 100 (0 no effect, 100 complete control)
[21] = Postemergence, 250 g ai/ha, scale 0 to 100 (0 no effect, 100 complete control)

With COCCn1c(-c2cccs2)ncc(C(=O)C2=C(O)CCCC2=O)c1=O [Compound 108] the “Plant response rating, Oat, Wild” value [1, 18] was 0, the “Oat, Wild plant response rating (0 to 100 scale)” value [1, 19] was 0 and the “Plant response rating, Oat, Wild” value [1, 20] was 0. For the same molecule, the “Plant response rating, Oat, Wild” value [1, 21] was 0, the “Plant response rating, Foxtail, Giant” value [2, 18] was 45 and the “Foxtail, Giant plant response rating (0 to 100 scale)” value [2, 19] was 60. For the same molecule, the “Plant response rating, Foxtail, Giant” value [2, 20] was 75, the “Plant response rating, Foxtail, Giant” value [2, 21] was 80 and the “Plant response rating, Crabgrass, Large” value [3, 18] was 60. For the same molecule, the “Crabgrass, Large plant response rating (0 to 100 scale)” value [3, 19] was 70, the “Plant response rating, Crabgrass, Large” value [3, 20] was 75 and the “Plant response rating, Crabgrass, Large” value [3, 21] was 85. For the same molecule, the “Velvetleaf plant response rating (0 to 100 scale)” value [4, 19] was 100, the “Plant response rating, Velvetleaf” value ([4]; 125 g ai/ha) was 100 and the “Plant response rating, Velvetleaf” value ([4]; 250 g ai/ha) was 100. The “Plant response rating, Johnsongrass” value [5, 18] was 10, the “Johnsongrass plant response rating (0 to 100 scale)” value [5, 19] was 20 and the “Plant response rating, Johnsongrass” value [5, 20] was 20. For the same molecule, the “Plant response rating, Johnsongrass” value [5, 21] was 60, the “Plant response rating, Cocklebur” value [6, 18] was 75 and the “Cocklebur plant response rating (0 to 100 scale)” value [6, 19] was 95. For the same molecule, the “Plant response rating, Cocklebur” value [6, 20] was 100, the “Plant response rating, Cocklebur” value [6, 21] was 100 and the “Soybean plant response rating (0 to 100 scale)” value [7, 19] was 55. For the same molecule, the “Plant response rating, Soybean” value ([7]; 125 g ai/ha) was 65, the “Plant response rating, Soybean” value ([7]; 250 g ai/ha) was 85 and the “Plant response rating, Kochia” value [8, 18] was 70. The “Kochia plant response rating (0 to 100 scale)” value [8, 19] was 95, the “Plant response rating, Kochia” value [8, 20] was 98 and the “Plant response rating, Kochia” value [8, 21] was 100. The “Plant response rating, Goosegrass” value [9, 18] was 60, the “Goosegrass plant response rating (0 to 100 scale)” value [9, 19] was 70 and the “Plant response rating, Goosegrass” value [9, 20] was 75. For the same molecule, the “Plant response rating, Goosegrass” value [9, 21] was 85, the “Plant response rating, Nutsedge, Yellow” value [10, 18] was 50 and the “Nutsedge, Yellow plant response rating (0 to 100 scale)” value [10, 19] was 75. For the same molecule, the “Plant response rating, Nutsedge, Yellow” value [10, 20] was 80, the “Plant response rating, Nutsedge, Yellow” value [10, 21] was 85 and the “Surinam Grass plant response rating (0 to 100 scale)” value [11, 19] was 60. The “Plant response rating, Surinam Grass” value ([11]; 125 g ai/ha) was 65, the “Plant response rating, Surinam Grass” value ([11]; 250 g ai/ha) was 80 and the “Plant response rating, Bromegrass, Downy” value [12, 18] was 0. For the same molecule, the “Bromegrass, Downy plant response rating (0 to 100 scale)” value [12, 19] was 0, the “Plant response rating, Bromegrass, Downy” value [12, 20] was 5 and the “Plant response rating, Bromegrass, Downy” value [12, 21] was 5. For the same molecule, the “Plant response rating, Morningglory” value [13, 18] was 75, the “Morningglory plant response rating (0 to 100 scale)” value [13, 19] was 90 and the “Plant response rating, Morningglory” value [13, 20] was 100. For the same molecule, the “Plant response rating, Morningglory” value [13, 21] was 100, the “Plant response rating, Cupgrass, Woolly” value [14, 18] was 40 and the “Cupgrass, Woolly plant response rating (0 to 100 scale)” value [14, 19] was 60. The “Plant response rating, Cupgrass, Woolly” value [14, 20] was 70, the “Plant response rating, Cupgrass, Woolly” value [14, 21] was 75 and the “Plant response rating, Corn” value [15, 18] was 15. For the same molecule, the “Corn plant response rating (0 to 100 scale)” value [15, 19] was 35, the “Plant response rating, Corn” value [15, 20] was 50 and the “Plant response rating, Corn” value [15, 21] was 65. The “Plant response rating, Blackgrass” value [16, 18] was 0, the “Blackgrass plant response rating (0 to 100 scale)” value [16, 19] was 5 and the “Plant response rating, Blackgrass” value [16, 20] was 20. For the same molecule, the “Plant response rating, Blackgrass” value [16, 21] was 30, the “Plant response rating, Foxtail, Green” value [17, 18] was 5 and the “Foxtail, Green plant response rating (0 to 100 scale)” value [17, 19] was 30. The “Plant response rating, Foxtail, Green” value [17, 20] was 80 and the “Plant response rating, Foxtail, Green” value [17, 21] was 80.
